Results on 24 compounds are retold here after patent US20240299360A1, “ADAMTS INHIBITORS, PREPARATION METHODS AND MEDICINAL USES THEREOF” (Jiangsu Hengrui Pharmaceuticals Co., Ltd., priority 2020, published 2024).

What all share (format): biochemical
Assay [1] concerns the target ADAMTS-4 recombinant protein (Homo sapiens (Human), UniProt O75173). The assay can be described thus: In vitro fluorescence (FRET-peptide) enzymatic assay of ADAMTS-4 activity. The conditions noted are these: FRET peptide substrate 15 μM, 10 nM enzyme, 37° C. 3 hours. The protocol: (§1) A FRET (fluorescence resonance energy transfer) peptide was cleaved by recombinant ADAMTS-4 or ADAMTS-5 proteins into two separate fragments resulting in an increase of fluorescence signal which was quantified. The peptide was 5-FAM-[…](5-TAMRA)K-NH2, customized from ANASPEC. ADAMTS-4 recombinant protein (catalog #4307-AD) and ADAMTS-5 recombinant protein (catalog #2198-AD) were purchased from R&D Systems.
(§2) An assay buffer containing 50 mM HEPES pH 7.5, 100 mM NaCl, 5 mM CaCl2, 0.1% CHAPS and 5% Glycerol was prepared. A volume of 2.5 μl of compound in the assay buffer was dispensed to a 384-well plate, and 2.5 μl of ADAMTS-4 or ADAMTS-5 protein (final concentration in the reaction was 10 nM) was added. The compounds and proteins were pre-incubated at room temperature for 15 minutes. Then, 5 μl of substrate was added to each well. The final substrate concentrations for ADAMTS-4 and ADAMTS-5 were 15 μM and 8 μM, respectively. The fluorescence signal in each well was determined, after incubation at 37° C. for 3 hours, on a TECAN plate reader (Excitation, 490 nm; Emission, 520 nm).
(§3) The data was inputted into GraphPad Prism, and the IC50 values were calculated using function “log (inhibitor) vs. response—Variable slope (four parameters)”. (See Table 1)

Assay [2] deals with T1, ADAMTS-5 recombinant protein (Homo sapiens (Human), UniProt Q9UNA0). In words: In vitro fluorescence (FRET-peptide) enzymatic assay of ADAMTS-5 activity. Conditions: FRET peptide substrate 8 μM, 10 nM enzyme, 37° C. 3 hours. The protocol: as §1, §2, §3
Assay [3] has as its target T1, ADAMTS-5 recombinant protein. The assay can be described thus: In vitro ELISA of ADAMTS-5 activity (Aggrecan-IGD enzymatic assay). The conditions noted are these: aggrecan-IGD substrate, ARGSVIL-peptide ELISA, 37° C. 45 minutes. As to the method: In this assay, the enzymatic activity of recombinant ADAMTS-5 protein (catalog #2198-AD, R&D Systems) was assayed with a protein substrate, the aggrecan IGD protein. The aggrecan IGD protein is a polypeptide connecting human aggrecan globular domains 1 and 2 (T331-G458) expressed in E. Coli with a C-terminal His-tag (catalog #30411000, BIOTEZ). The enzymatic product ARGSVIL-peptide was detected using an ELISA kit from BioTEZ (catalog #30510111).
An assay buffer containing 50 mM HEPES pH 7.5, 100 mM NaCl, 5 mM CaCl2), 0.1% CHAPS and 5% Glycerol was prepared. Recombinant ADAMTS-5 protein was diluted to 0.3 nM in the assay buffer. Ten μl of […] and 10 μl of compound solution was transferred to each well of a 96-well plate and incubated at room temperature for 15 minutes. Substrate aggrecan-IGD was diluted to 100 nM with the assay buffer and 20 μl was added to each well. The plate was incubated at 37° C. for 45 minutes. After incubation, the newly generated epitope ARGSVIL-peptides were measured using the Aggrecanase Activity ELISA Assay Kit following the manufacturer's instructions. Then, 100 μl of stop solution was added and the absorbance of each well was read at 450 nm, using […] as reference on a TECAN plate reader.
A standard curve of the ELISA assay was generated in GraphPad Prism using Sigmoidal 4PL function and the corresponding peptide concentrations were calculated based on the standard curve. The IC50 values were calculated using function “log (inhibitor) vs. response—Variable slope (four parameters)”. (See Table 2).
(ELISA stands for enzyme-linked immunosorbent assay.)

T1 sequence (Q9UNA0 262-622): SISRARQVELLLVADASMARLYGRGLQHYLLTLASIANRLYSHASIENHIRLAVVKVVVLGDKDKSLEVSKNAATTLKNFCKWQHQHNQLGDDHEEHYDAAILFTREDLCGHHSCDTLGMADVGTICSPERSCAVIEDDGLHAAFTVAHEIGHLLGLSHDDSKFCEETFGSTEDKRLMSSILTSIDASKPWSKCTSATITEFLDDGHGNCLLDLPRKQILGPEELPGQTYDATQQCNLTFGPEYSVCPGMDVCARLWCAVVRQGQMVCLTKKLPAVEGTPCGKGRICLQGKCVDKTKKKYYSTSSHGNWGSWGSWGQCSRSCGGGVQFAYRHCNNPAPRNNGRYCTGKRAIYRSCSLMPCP
Sequence of ADAMTS-4 recombinant protein (O75173 213-685): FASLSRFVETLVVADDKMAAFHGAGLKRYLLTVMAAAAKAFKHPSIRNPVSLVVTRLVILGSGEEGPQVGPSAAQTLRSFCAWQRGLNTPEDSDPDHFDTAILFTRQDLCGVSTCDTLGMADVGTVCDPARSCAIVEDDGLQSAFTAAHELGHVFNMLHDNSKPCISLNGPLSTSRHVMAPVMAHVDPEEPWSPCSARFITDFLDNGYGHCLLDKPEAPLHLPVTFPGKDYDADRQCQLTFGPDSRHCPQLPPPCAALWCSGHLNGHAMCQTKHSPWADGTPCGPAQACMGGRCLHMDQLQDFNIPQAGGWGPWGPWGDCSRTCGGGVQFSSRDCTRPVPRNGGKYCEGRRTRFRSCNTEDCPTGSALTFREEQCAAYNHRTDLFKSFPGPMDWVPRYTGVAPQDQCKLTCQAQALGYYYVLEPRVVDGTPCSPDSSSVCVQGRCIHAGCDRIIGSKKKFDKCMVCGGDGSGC

One may read the IC50 as the concentration that inhibits the measured activity by half. `CC(C[C@@]1(C2CC2)NC(=O)NC1=O)C(=O)N1Cc2cc(Cl)c(Cl)cc2C1` (mixture of isomers) [Example 34-2, (5S)-5-cyclopropyl-5-(3-(5,6-dichloroisoindolin-2-yl)-2-methyl-3-oxopropyl)imidazolidine-2,4-dione]: the IC50 in assay [1] turned out to be 7 nM; in assay [2], 9 nM; in assay [3] it was 17 nM.

In the case of `O=C1NC(=O)[C@](C[C@@H](CO)C(=O)N2Cc3cc(Cl)c(C(F)(F)F)cc3C2)(C2CC2)N1` (single isomer, unassigned), the IC50 in assay [1] worked out at 16 nM; in assay [2], 15 nM.

For `C[C@H]1CN(C(=O)CC[C@@]2(C3CC3)NC(=O)NC2=O)CCc2ccc(F)cc21` (single isomer, unassigned) [Example 27], the IC50 in assay [1] was determined as 170 nM; in assay [2], 270 nM.

Regarding `C[C@@H]1CN(C(=O)CC[C@@]2(C3CC3)NC(=O)NC2=O)CCc2ccc(F)cc21` (single isomer, unassigned) [Example 28], the IC50 in assay [1] was 47 nM; in assay [2], 48 nM.

In the case of `O=C1NC(=O)[C@](CCC(=O)N2Cc3ccc(Cl)cc3C2)(C2CC2)N1` [Example 2, (S)-5-(3-(5-chloroisoindolin-2-yl)-3-oxopropyl)-5-cyclopropylimidazolidine-2,4-dione], the IC50 in assay [1] was determined as 91 nM; in assay [2], 190 nM; in assay [3], 860 nM.

With `O=C1NC(=O)[C@](CCC(=O)N2Cc3ccc(OC(F)(F)F)cc3C2)(C2CC2)N1` [Example 4, (S)-5-cyclopropyl-5-(3-oxo-3-(5-(trifluoromethoxy)isoindolin-2-yl)propyl)imidazolidine-2,4-dione], the IC50 in assay [1] came to 170 nM; in assay [2] it was 480 nM; in assay [3], 730 nM.

For the compound `O=C1NC(=O)[C@](CCC(=O)N2Cc3ccc(OC(F)F)cc3C2)(C2CC2)N1` [Example 10, (S)-5-cyclopropyl-5-(3-(5-(difluoromethoxy)isoindolin-2-yl)-3-oxopropyl)imidazolidine-2,4-dione], the IC50 in assay [1] worked out at 41 nM; in assay [2], 260 nM.

Regarding `O=C1NC(=O)[C@](CCC(=O)N2Cc3cccnc3C2)(C2CC2)N1` [Example 12, (S)-5-cyclopropyl-5-(3-(5,7-dihydro-6H-pyrrolo[3,4-b]pyridin-6-yl)-3-oxopropyl)imidazolidine-2,4-dione], the IC50 is 2300 nM in assay [1] and 1500 nM in assay [2].

As to `O=C1NC(=O)[C@](CCC(=O)N2Cc3ccncc3C2)(C2CC2)N1` [Example 13, (S)-5-cyclopropyl-5-(3-(1,3-dihydro-2H-pyrrolo[3,4-c]pyridin-2-yl)-3-oxopropyl)imidazolidine-2,4-dione], the IC50 in assay [1] is 1400 nM; in assay [2], 4000 nM.

On to `C[C@@H]1c2ccccc2CN1C(=O)CC[C@@]1(C2CC2)NC(=O)NC1=O` [Example 14, (S)-5-cyclopropyl-5-(3-((R)-1-methylisoindolin-2-yl)-3-oxopropyl)imidazolidine-2,4-dione], for which the IC50 is 290 nM in assay [1] and 1000 nM in assay [2].

As for `O=C1NC(=O)[C@](CCC(=O)N2Cc3cccc(F)c3C2)(C2CC2)N1` [Example 16, (S)-5-cyclopropyl-5-(3-(4-fluoroisoindolin-2-yl)-3-oxopropyl)imidazolidine-2,4-dione], the IC50 in assay [1] was 1700 nM; in assay [2] it was 6200 nM.

Regarding `O=C1NC(=O)[C@](CCC(=O)N2Cc3ccc(F)cc3C2)(C2CC2)N1` [Example 17, (S)-5-cyclopropyl-5-(3-(5-fluoroisoindolin-2-yl)-3-oxopropyl)imidazolidine-2,4-dione], the IC50 in assay [1] was 310 nM; in assay [2] it was 370 nM.

On to `O=C1NC(=O)[C@](CCC(=O)N2Cc3cc(F)c(F)cc3C2)(C2CC2)N1` [Example 19, (S)-5-cyclopropyl-5-(3-(5,6-difluoroisoindolin-2-yl)-3-oxopropyl)imidazolidine-2,4-dione], for which the IC50 is 260 nM in assay [1] and 330 nM in assay [2].

For `COc1cccc2c1CCN(C(=O)CC[C@@]1(C3CC3)NC(=O)NC1=O)CC2` [Example 25, (S)-5-cyclopropyl-5-(3-(6-methoxy-1,2,4,5-tetrahydro-3H-benzo[d]azepin-3-yl)-3-oxopropyl)imidazolidine-2,4-dione], the IC50 in assay [1] worked out at 5800 nM; in assay [2], 3600 nM.

Take `CC1(C)CN(C(=O)CC[C@@]2(C3CC3)NC(=O)NC2=O)CCc2ccccc21` [Example 26, (S)-5-cyclopropyl-5-(3-(1,1-dimethyl-1,2,4,5-tetrahydro-3H-benzo[d]azepin-3-yl)-3-oxopropyl)imidazolidine-2,4-dione]: the IC50 in assay [1] was 3800 nM; in assay [2] it was 5400 nM.

As to `CCC(C[C@@]1(C2CC2)NC(=O)NC1=O)C(=O)N1Cc2ccc(C(F)(F)F)cc2C1` (stereo partly drawn) [Example 31-2, (5S)-5-cyclopropyl-5-(2-(5-(trifluoromethyl)isoindoline-2-carbonyl)butyl)imidazolidine-2,4-dione], in assay [3], the IC50 is 33 nM.

For the compound `O=C1NC(=O)C(CCC(=O)N2Cc3ccc(C(F)(F)F)cc3C2)(c2nccs2)N1` (centres unmarked) [Example 43, 5-(3-oxo-3-(5-(trifluoromethyl)isoindolin-2-yl)propyl)-5-(thiazol-2-yl)imidazolidine-2,4-dione], the results for the IC50 in assay [1] and in assay [2] were 150 nM and 250 nM, respectively.

In the case of `O=C1NC(=O)[C@](CCC(=O)N2Cc3cc(Cl)c([N+](=O)[O-])cc3C2)(C2CC2)N1` [Example 50, (S)-5-(3-(5-chloro-6-nitroisoindolin-2-yl)-3-oxopropyl)-5-cyclopropylimidazolidine-2,4-dione], the IC50 in assay [1] stood at 120 nM; in assay [2] it was 220 nM.

For the compound `O=C1NC(=O)[C@](CCC(=O)N2Cc3cc(Cl)c(I)cc3C2)(C2CC2)N1` [Example 53, (S)-5-(3-(5-chloro-6-iodoisoindolin-2-yl)-3-oxopropyl)-5-cyclopropylimidazolidine-2,4-dione], the IC50 in assay [1] was found to be 240 nM; in assay [2], 170 nM.

For the compound `O=C1NC(=O)C(CCC(=O)N2Cc3ccc(C(F)(F)F)cc3C2)(c2ccccn2)N1` (centres unmarked) [Example 60, 5-(3-oxo-3-(5-(trifluoromethyl)isoindolin-2-yl)propyl)-5-(pyridin-2-yl)imidazolidine-2,4-dione], the figures for the IC50 in assay [1] and in assay [2] were 170 nM and 220 nM, respectively.

`O=C1NC(=O)[C@](CCC(=O)N2Cc3ccc(CC(F)(F)F)cc3C2)(C2CC2)N1` [Example 72, (S)-5-cyclopropyl-5-(3-oxo-3-(5-(2,2,2-trifluoroethyl)isoindolin-2-yl)propyl)imidazolidine-2,4-dione]: the IC50 is 43 nM in assay [1] and 130 nM in assay [2].

For `O=C1NC(=O)[C@](CCC(=O)N2Cc3cc(F)c(C(F)F)cc3C2)(C2CC2)N1` [Example 74, (S)-5-cyclopropyl-5-(3-(5-(difluoromethyl)-6-fluoroisoindolin-2-yl)-3-oxopropyl)imidazolidine-2,4-dione], the results for the IC50 in assay [1] and in assay [2] were 56 nM and 100 nM, respectively.

For the compound `Cn1ccc(C2(CCC(=O)N3Cc4cc(Cl)c(C(F)(F)F)cc4C3)NC(=O)NC2=O)n1` (centres unmarked) [Example 77, 5-(3-(5-chloro-6-(trifluoromethyl)isoindolin-2-yl)-3-oxopropyl)-5-(1-methyl-1H-pyrazol-3-yl)imidazolidine-2,4-dione], the results for the IC50 in assay [1] and in assay [2] were 400 nM and 160 nM, respectively.

On to `CCn1ccnc1C1(CCC(=O)N2Cc3cc(Cl)c(C(F)(F)F)cc3C2)NC(=O)NC1=O` (centres unmarked) [Example 82, 5-(3-(5-chloro-6-(trifluoromethyl)isoindolin-2-yl)-3-oxopropyl)-5-(1-ethyl-1H-imidazol-2-yl)imidazolidine-2,4-dione], for which the IC50 in assay [1] was 80 nM; in assay [2], 25 nM.
